Key:
[1] = system: platelet aggregation induced by PAF; test: Inhibition of platelet aggregation induced by PAF (rabbit platelet rich plasma, Born nephelometric technique); assay type: cell-based, male New Zealand albino rabbits; details: Oryctolagus cuniculus, rabbit PRP, 3×10^5 platelets/mm^3, PAF (C18) 15 nM
Experimental: Inhibition of platelet aggregation induced by PAF.
Blood is obtained by cardiac puncture of male New Zealand albino rabbits (b.w. 2-2.5 Kg) and coagulation is prevented by adding 1 part of 3.16% sodium citrate dihydrate in 9 parts of blood. Platelet rich plasma (PRP) is prepared by centrifuging the blood at 250×g for 10 min. at 4° C. and then it is diluted with platelet poor plasma (PPP) obtained by further centrifuging at 3000×g for 10 min. The platelet count is adjusted to 3×10^5 /mm^3. Platelet aggregation induced by PAF (C18, prepared in our laboratory) (15 nM) is determined by the Born nephelometric technique (J. Physiol., 1962, 162, 67) using an aggregometer Chrono-log 500. The activities of the inhibitors are expressed as the IC50 value, that is to say the concentration of the drug needed to inhibit platelet aggregation by 50%.

[2] = system: hypotensive effect induced by PAF in normotense rats; test: Inhibition of the hypotensive effect induced by PAF in normotense rats; assay type: in vivo, male Sprage Dawley rats; details: Rattus norvegicus, iv, 0.05 h; i.v., test compound via femoral vein 3 min. before PAF 0.5 mcg/Kg i.v.; anaesthetized rats; read-out: ID50 (inhibition of PAF-induced hypotension)
Experimental: Inhibition of the hypotensive effect induced by PAF in normotense rats.
Male Sprage Dawley rats (b.w. 180-220 g) anaesthetized with sodium pentobarbital (50 mg/Kg, i.p. 1 mL/100 g) are used. In order to measure the arterial pressure, a polyethylene catheter is introduced into the carotid artery. The arterial pressure is recorded with the help of a transducer coupled to a R611 Beckman polygraph. The test compounds are administered through the femoral vein 3 min. before PAF injection (0.5 mcg/Kg, i.v.). Control animals receive only the vehicle.

`Cc1ncccc1C(C#N)N1CCN(C(=O)Cc2ccc(OCc3ccc4ccccc4n3)cc2)CC1` (stereo not drawn) [Compound 1, 1-[p-(2-Quinolylmethoxy)phenylacetyl]-4-[(2-methyl-3-pyridyl)cyanomethyl]piperazine] was tested. Which IC50 [1] did it give?
The IC50 was 6700 nM.

And the ED50 [2]?
The ED50 was 0.69 mg/kg.

How did the IC50 [1] turn out when `Cc1ncccc1C(C#N)N1CCN(C(=O)CNC(c2ccccc2)c2ccc(OCc3ccc4ccccc4n3)cc2)CC1` (stereo not drawn) [Compound 2] was run?
The IC50 was 1800 nM.

What about the ED50 [2] of the same compound?
Its ED50 is 0.057 mg/kg.

For `Cc1ncccc1C(C#N)N1CCN(C(=O)CC(NC(=O)Cc2ccc(OCc3ccc4ccccc4n3)cc2)c2ccccc2)CC1` (stereo not drawn) [Compound 3, 1-[3-[N-[p-(2-quinolylmethoxy)phenylacetyl]]amino-3-phenylpropionyl]-4-[(2-methyl-3-pyridiyl)cyanomethyl]piperazine], which IC50 [1] is on record?
Its IC50 is 80 nM.

What about the ED50 [2] of the same compound?
The ED50 was 0.036 mg/kg.

What does the source list for `Cc1ncccc1C(C#N)N1CCN(C(=O)CC(NC(=O)Cc2cccc(OCc3ccc4ccccc4n3)c2)c2ccccc2)CC1` (stereo not drawn) [Compound 4, 1-[3-[N-[3-(2-quinolylmethoxy)phenylacetyl]]amino-3-phenylpropionyl]-4-[(2-methyl-3-pyridyl)cyanomethyl]piperazine]?
IC50 [1]: 12 nM; ED50 [2]: 0.041 mg/kg

What does the source list for `Cc1ncccc1C(C#N)N1CCN(C(=O)CC(NC(=O)c2ccc(OCc3ccc4ccccc4n3)cc2)c2ccccc2)CC1` (stereo not drawn) [Compound 5, 1-[3-[N-[p-(2-quinolylmethoxy)benzoyl]]amino-3-phenylpropionyl]-4-[(2-methyl-3-pyridyl)cyanomethyl]piperazine]?
IC50 [1]: 680 nM; ED50 [2]: 0.21 mg/kg

How did the IC50 [1] turn out when `Cc1ncccc1C(C#N)N1CCN(C(=O)CC(NC(=O)c2cccc(OCc3ccc4ccccc4n3)c2)c2ccccc2)CC1` (stereo not drawn) [Compound 6, 1-[3-[N-[3-(2-quinolylmethoxy)benzoyl]]amino-3-phenylpropionyl]-4-[(2-methyl-3-pyridyl)cyanomethyl]piperazine] was run?
The IC50 was 740 nM.

What about the ED50 [2] of the same compound?
The ED50 was 0.16 mg/kg.

For `N#CC(c1cccnc1)C1CCN(C(=O)CC(NC(=O)c2ccc(OCc3ccc4ccccc4n3)cc2)c2ccccc2)CC1` (stereo not drawn) [Compound 7, 1-[3-[N-[p-(2-quinolylmethoxy)benzoyl]]amino-3-phenylpropionyl]-4-(3-pyridylcyanomethyl)piperidine], which IC50 [1] is on record?
The IC50 was 55 nM.

What about the ED50 [2] of the same compound?
Its ED50 is 0.25 mg/kg.

What does the source list for `N#CC(c1cccnc1)C1CCN(C(=O)[C@H](NC(=O)Cc2ccc(OCc3ccc4ccccc4n3)cc2)c2ccccc2)CC1` (stereo partly drawn) [Compound 10, 1-[N-[p-(2-quinolylmethoxy)phenylacetyl]-D-2-phenylglycinyl]-4-(3-pyridylcyanomethyl)piperidine]?
IC50 [1]: 550 nM; ED50 [2]: 0.12 mg/kg

With `N#CC(c1cccnc1)C1CCN(C(=O)[C@H](NC(=O)c2cccc(OCc3ccc4ccccc4n3)c2)c2ccccc2)CC1` (stereo partly drawn) [Compound 13, 1-[N-[3-(2-quinolylmethoxy)benzoyl]-D-2-phenylglycinyl]-4-(3-pyridylcyanomethyl)piperidine] as the compound, how does the IC50 [1] read?
The IC50 was 660 nM.

What about the ED50 [2] of the same compound?
Its ED50 is 0.21 mg/kg.

Source: patent US5420131A, “Cyanomethylpyridine derivatives” (J. Uriach & Cia, S.A., priority 1993, dated 1995)
